In PubChem BioAssay (NCI):
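These data come from cells grown in 96-well plates and exposed to compound for 48 hours at five concentrations. Abbreviation: GI50, concentration required for 50% inhibition of growth. TGI: concentration producing complete growth inhibition.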

Experiments:
Test in all cases: growth of human tumour cells (NCI), 48 h
HOP-62 NSCLC = test system: HOP-62 NSCLC
EKVX NSCLC = test system: EKVX NSCLC
SK-MEL-2 melanoma = test system: SK-MEL-2 melanoma
SK-OV-3 ovarian = test system: SK-OV-3 ovarian
A549 NSCLC = test system: A549 NSCLC
SN12C renal = test system: SN12C renal
CCRF-CEM leukemia = test system: CCRF-CEM leukemia
HCC-2998 colon = test system: HCC-2998 colon
OVCAR-5 ovarian = test system: OVCAR-5 ovarian
SK-MEL-5 melanoma = test system: SK-MEL-5 melanoma

SMILES | TGI (HOP-62 NSCLC) | TGI (EKVX NSCLC) | TGI (SK-MEL-2 melanoma) | TGI (SK-OV-3 ovarian) | TGI (A549 NSCLC) | TGI (SN12C renal) | TGI (CCRF-CEM leukemia) | TGI (HCC-2998 colon) | TGI (OVCAR-5 ovarian) | TGI (SK-MEL-5 melanoma) | GI50 (HOP-62 NSCLC) | GI50 (EKVX NSCLC) | GI50 (SK-MEL-2 melanoma) | GI50 (SK-OV-3 ovarian) | GI50 (A549 NSCLC) | GI50 (SN12C renal) | GI50 (CCRF-CEM leukemia) | GI50 (HCC-2998 colon) | GI50 (OVCAR-5 ovarian) | GI50 (SK-MEL-5 melanoma)
NNC(=O)N/N=C1\CN(c2ccc(Cl)cc2Cl)C(=O)C(=O)C1c1nc2ccccc2o1 (stereo not given) | > 100 µM | > 100 µM | > 100 µM | > 100 µM | > 100 µM | > 100 µM | > 100 µM | > 100 µM | > 100 µM | > 100 µM | – | – | – | – | – | – | – | – | – | –
C#CC#CC#CC#CC#CC#CC#CC#CC[C@@H]1OC[C@@H](COC(=O)O[C@@H](C(=O)O[C@H]2C[C@@]3(O)[C@@H](OC(=O)c4ccccc4)[C@@H]4[C@]5(OC(C)=O)CO[C@@H]5C[C@H](O)[C@@]4(C)C(=O)[C@H](OC(C)=O)C(=C2C)C3(C)C)[C@@H](NC(=O)c2ccccc2)c2ccccc2)O1 | > 33.3 µM | > 33.3 µM | > 33.3 µM | > 33.3 µM | > 33.3 µM | > 33.3 µM | > 33.3 µM | > 17.5 µM | > 33.3 µM | > 9.15 µM | 1.13 µM | 2.25 µM | 1.28 µM | 0.897 µM | 0.285 µM | 1.03 µM | 0.354 µM | 0.289 µM | 0.333 µM | 0.83 µM
COC(=O)c1ccc2[nH]c(O)c(C(=Nc3ccc(N(C)C(=O)CN4CCN(C)CC4)cc3)c3ccccc3)c2c1 | 13 µM | 16.2 µM | 3.54 µM | 5 µM | 5.31 µM | 11.6 µM | > 100 µM | 18.2 µM | 6.8 µM | 2.69 µM | 2.1 µM | 2.98 µM | 1.17 µM | 0.444 µM | 1.46 µM | 0.267 µM | 0.666 µM | 3.89 µM | 2.63 µM | 1.35 µM
COc1ccc(C(=O)O/N=C2/CCCCC2CN(C)C)cc1 (stereo not given) | > 100 µM | > 100 µM | > 100 µM | > 100 µM | > 100 µM | > 100 µM | > 100 µM | > 100 µM | > 100 µM | > 100 µM | – | – | – | – | – | – | – | – | – | –
OCCCCC#Cc1ccccc1C#Cc1ccc(C(F)(F)F)cc1 | 24.3 µM | 35.9 µM | 33.9 µM | 34 µM | 27.6 µM | 29.6 µM | 44.1 µM | 32 µM | 31.8 µM | 33.3 µM | 11.4 µM | 18.4 µM | 16 µM | 18.5 µM | 14.3 µM | 15.8 µM | 19.6 µM | 17.1 µM | 16.9 µM | 17.8 µM
Cn1ccnc1C(=O)/C=C/c1ccc(C(=O)Nc2c(F)c(F)c(F)c(F)c2F)cc1 | 8.71 µM | 5.85 µM | 5.6 µM | 10.1 µM | 4.16 µM | 3.69 µM | 4.95 µM | 3.14 µM | 3.9 µM | 3.28 µM | 2.77 µM | 2.36 µM | 2.18 µM | 3.24 µM | 1.79 µM | 1.77 µM | 1.68 µM | 1.64 µM | 1.82 µM | 1.79 µM
CN(C)c1ccc(C2CC(C)(O)Oc3cc4c(cc32)OCO4)cc1 (stereo not given) | > 100 µM | > 100 µM | 63.8 µM | > 100 µM | > 100 µM | > 100 µM | > 100 µM | 95.1 µM | > 100 µM | > 100 µM | – | – | – | – | – | – | – | – | – | –
COc1ccc(/C(C)=C(\c2ccc(Cl)cc2)c2ccc(OCCN3CCCCCC3)cc2)cc1F | 6.72 µM | > 16.7 µM | 16.3 µM | 16.6 µM | > 16.7 µM | 8.3 µM | > 16.7 µM | 9.38 µM | 8.18 µM | 5.27 µM | 3.33 µM | 5.54 µM | 5.23 µM | 5.05 µM | 5.27 µM | 2.96 µM | 4.51 µM | 3.81 µM | 2.95 µM | 2.89 µM
C#Cc1cccc(NC(=O)C2CCCN(C(=O)CCl)C2)c1 (stereo not given) | > 82.5 µM | > 82.5 µM | > 82.5 µM | > 82.5 µM | > 82.5 µM | > 82.5 µM | 64.4 µM | > 82.5 µM | > 82.5 µM | > 82.5 µM | > 82.5 µM | > 82.5 µM | > 82.5 µM | > 82.5 µM | > 82.5 µM | 19.7 µM | 21.7 µM | > 82.5 µM | > 82.5 µM | 29.7 µM
CCN1CCN(c2nc(NNC(=O)c3ccccc3)nc(N3CCN(C(c4ccccc4)c4ccccc4)CC3)n2)CC1 | 31.8 µM | 30 µM | 5.67 µM | 22.1 µM | 20.2 µM | 8.97 µM | 6.36 µM | 4.08 µM | 21.4 µM | 3.14 µM | 12.7 µM | 10.3 µM | 2.4 µM | 5.93 µM | 3.7 µM | 2.89 µM | 2.05 µM | 1.95 µM | 6.03 µM | 1.73 µM
CNCc1ccc(-c2[nH]c3cc(F)cc4c3c2CCNC4=O)cc1 | 43.4 µM | > 83.1 µM | 39.3 µM | 56 µM | > 71.2 µM | 48 µM | > 93 µM | 35.6 µM | 55.5 µM | 28.1 µM | 14.9 µM | 26.1 µM | 20.9 µM | 18.6 µM | 19.4 µM | 16.5 µM | 25.6 µM | 16.5 µM | 19.1 µM | 14.7 µM
Cc1nc(-n2nc(-c3ccccc3)cc2-c2ccccc2)sc1C(=O)/C=C/c1ccccc1 | > 100 µM | > 100 µM | > 100 µM | > 100 µM | > 100 µM | > 100 µM | > 100 µM | > 100 µM | > 100 µM | > 100 µM | – | – | – | – | – | – | – | – | – | –
COc1cc(/C=C2\C(=O)N(C)c3ccccc32)cc(OC)c1OC | 54 µM | > 100 µM | 45.8 µM | > 100 µM | > 100 µM | 69.5 µM | 87.9 µM | 44.4 µM | 70.2 µM | 27.8 µM | 20.2 µM | 24.3 µM | 14.3 µM | 20.9 µM | 26.3 µM | 17 µM | 5.42 µM | 19 µM | 25.2 µM | 10.1 µM
COc1c(O)c2c3c(c1OC)-c1ccccc1CC3N(S(=O)(=O)c1ccc(C)cc1)CC2 (stereo not given) | > 50 µM | > 50 µM | 3.88 µM | 38.4 µM | > 50 µM | > 50 µM | 4.94 µM | 34.1 µM | > 50 µM | > 50 µM | 2.77 µM | 4.04 µM | 1.47 µM | 1.96 µM | 2 µM | 2.59 µM | 1.34 µM | 4.01 µM | 2.69 µM | 1.77 µM
